Data taken from patent publication US20030186352A1, “Apicomplexan chorismate synthase sequences and an inhibitor of the shikimate pathway” (priority 1998, published 2003).
In brackets after ≈: the same amount, converted by molar mass.

How the values were obtained:
EPSP synthase = experiment: T. gondii EPSP synthase enzyme assay (HPLC detection of EPSP); format: biochemical; settings: 1 mM
Protocol: Assays for 4-aminobenzoate and 4-amino-4-deoxychorismate are performed as described previously.” Enzyme Assays: The 5-enolpyruvylshikimate-3-phosphate (EPSP) synthase assay entailed monitoring the generation of EPSP using HPLC. Reaction components were separated using a Hypersil H3APS2 HPLC column (Hichrom Limited, Reading, UK) and a NaH2PO4 elution gradient (50-400 mM). UV spectra (200-300 nm) of the colume eluate were collected to identify eluants. […] The peaks at 215 nm were integrated; the EPSP produced was quantified using a standard curve of authentic EPSP. Parasite extracts were produced at 4° C. by suspension of pure tachyzoites in extraction buffer (50 mM Tris.HCl, pH 7.5, containing complete TM protease inhibitor cocktail [Boehringer Mannheim, 1 tablet per 50 ml buffer]), sonication 3 times for 3 seconds at 30 second intervals, and centrifugation at 12000 g for 15 min. The resulting supernatant was diluted 6-fold with extraction buffer and loaded onto a ResourceQ column (1 ml, Pharmacia) equilibrated with extraction buffer. The bound protein was eluted in a single step using extraction buffer containing 500 mM Kcl. The eluted material was used for enzyme assay. The assay mix contained 1 mM phosphoenolpyruvate, 1 mM SP and 50 mM HEPES, pH 7.5. […] Protein concentrations of lysates were determined using the Lowry method. […]

P. falciparum = P. falciparum in vitro growth assay, clone not stated; format: cell-based, Plasmodium falciparum
Protocol: This assay is performed in folate deficient RPMI 1640 over a 66 hour incubation in plasma as described by Milhous et al. (1985). Both the W2 clone DHFR resistant phenotype and the D6 clone are used (Odula et al., 1988) (Table 3).

[1] = tested on: T. gondii tachyzoites (RH strain); experiment: T. gondii growth inhibition in HFF monolayers, tritiated uracil uptake; format: cell-based, Toxoplasma gondii
Protocol: The improvements are based on microscopic visual imspection of infected and inhibitor treated cultures, and on quantitation of nucleic acid synthesis of the parasite by measure intake of ^3H uracil onto the parasite's nucleic acid. Uracil is not utilized by mammalian cells. […] Only the RH strain tachyzoites, cultured for up to 72 hours, had been used in previously reported assays. The use of Me49, Ptg, and R5 mutant are unique aspects of the methods used in these assays in this invention.
(§1) In these assays toxicity of a candidate inhibitor was assessed by its ability to prevent growth of human foreskin fibroblasts (HFF) after 4 days and after 8 days as measured by tritiated thymidine uptake and microscopic evaluation. Confluent monolayers of HFF were infected with tachyzoites and bradyzoites. Inhibitor was added one hour later. Non-toxic doses were used in parasite growth inhibition assays. Parasite growth was measured by ability to incorporate tritiated uracil during the last 18 hours of culture.
(§2) First the toxicity of gabaculine was assessed by its ability to prevent growth of human foreskin fibroblasts (HFF) as measured by ^3H-thymidine uptake and microscopic evaluation. Non-toxic doses were used in parasite growth inhibition assays. in vitro parasite growth inhibition assays included confluent monolayers of HFF infected with tachyzoites (RH) or mutant Me49 (R5). Gabaculine was added 1 hour later. Parasite growth was measured by the ability to incorporate 3H-uracil during the last 18 hours of culture. In addition, parasite growth was evaluated microscopically in Giemsa stained slides.
Confluent monolayers of HFF cells, grown in 96-well plates are infected with T. gondii tachyzoites of the RH strain and serial dilutions of anti-microbial compound are applied 1 hour later. T. gondii growth is assessed in these cultures by their ability to incorporate tritiated uracil (2.5 μCi/well) added during the last 18 hours of culture. After harvesting cells with an automatic cell harvester, uracil incorporation is measured by liquid scintillation.

[2] = tested on: D6 clone of Plasmodium falciparum; experiment: P. falciparum in vitro growth assay (Milhous et al.), D6 clone; format: cell-based; settings: Plasmodium falciparum, D6 clone
[3] = tested on: W2 clone of Plasmodium falciparum; experiment: P. falciparum in vitro growth assay (Milhous et al.), W2 clone; format: cell-based; settings: Plasmodium falciparum, W2
C. parvum = C. parvum infection of MDBKF5D2 cell monolayers, immunofluorescence assay at 48 hours; format: cell-based, Cryptosporidium parvum; settings: for approximate 95% Cl count (mean parasite count per field): media alone ~1800
Protocol: C. parvum oocysts at 50,000/well were incubated at 37° C. (8% CO2) on confluent MDBKF5D2 cell monolayers in 96 well microtiter plates with the following concentrations of each drug. […] The level of infection of each well was determined and analyzed by an immunofluorescence assay at 48 hours using an antibody to C. parvum sporozoites made in rabbits at a concentration of 0.1%. Fluorescein-conjugated goat anti-rabbit antibody was used at a concentration of 1%.
C. parvum oocysts at 50,000/well were incubated with each drug (PRM=paromomycin which is the positive control, NPMG, gabaculine, SHAM, 8-hydroxyquinoline) at 37° C. (8% carbon dioxide) on confluent MDBKF5D2 cell monolayers in 96 well microtiter plates. The level of infection of each well was determined and analyzed by an immunofluorescence assay at 48 hours using as an antibody C. parvum sporozoite rabbit anti-serum (0.1%), and using fluorescein-conjugated goat anti-rabbit antibody (1%). Data are expressed as mean parasite count/field when 16 fields counted at 10× magnification “s.d. of the mean” (FIG. 6).

[4] = tested on: human foreskin fibroblasts (HFF); experiment: Toxicity to human foreskin fibroblasts, tritiated thymidine uptake and microscopy; format: cell-based; settings: similar concentrations (20 mM)
Protocol: as §1, §2
Inhibitor compounds are tested over a range of concentrations for toxicity against mammalian cells by assessing their ability to prevent cell growth as measured by tritiated thymidine uptake and inspection of the monolayer using microscopic evaluation. […]

[5] = tested on: mutant R5 strain of T. gondii; experiment: Growth of mutant R5 strain of T. gondii in HFF, uracil uptake over 8 days; format: cell-based, Toxoplasma gondii; settings: 20 mM gabaculine or P/S, 8 days in culture
Protocol: Improvements were developed in the assays reported by Mack et al. (1984) and Holfels et al. (1994) to measure T. gondii replication in tissue culture. The improvements are based on microscopic visual imspection of infected and inhibitor treated cultures, and on quantitation of nucleic acid synthesis of the parasite by measure intake of ^3H uracil onto the parasite's nucleic acid. Uracil is not utilized by mammalian cells. […]
First the toxicity of gabaculine was assessed by its ability to prevent growth of human foreskin fibroblasts (HFF) as measured by ^3H-thymidine uptake and microscopic evaluation. […] Parasite growth was measured by the ability to incorporate 3H-uracil during the last 18 hours of culture. In addition, parasite growth was evaluated microscopically in Giemsa stained slides.
This mutant strain is atovaquone resistant and posseses certain characterisitics of the tachyzoite stage and certain characteristics of the bradyzoite stage. T. gondii growth is measure by their ability to incorporate tritiated uracil and is expressed as counts/minute (CPM) on the Y-axis. […]

O=C(O)CNCP(=O)(O)O [NPMG, N-(phosphonomethyl) glycine]
inhibition of T. gondii EPSP synthase enzyme activity (EPSP synthase): inhibition of EPSP synthase enzyme activity | product rescue of glyphosate inhibition of in vitro growth of asexual erythrocytic forms (P. falciparum; PABA and folate): PABA and folate antagonism of growth inhibition | restriction of CPM (tritiated uracil incorporation) ([1]; NPMG 3.12 mM, 4 day assay, medium around 72,000): around 60% | counts (tritiated uracil incorporation) ([1]; NPMG 4.5 mM, 4 days, medium around 72,000, no RH around 2,000 CPM): about 12,000 CPM | product rescue by PABA of NPMG inhibition of nucleic acid synthesis ([1]; PABA at increasing concentrations added to cultures): PABA abrogates the inhibitory effects | inhibition at 4500 µM ([1]; Toxoplasma gondii, 96 h, NPMG 4.5 mM, 4 day assay, read-out: inhibition of parasite growth): ~80% | IC50 ([2]; read-out: IC 50): 0.823 µg/mL (≈ 4.87 µM) | IC90 ([2]; read-out: IC 90): 2.51 µg/mL (≈ 14.8 µM) | IC50 [3]: 1.72 µg/mL (≈ 10.1 µM) | IC90 [3]: 3.4 µg/mL (≈ 20.1 µM) | product rescue by PABA of NPMG effect on C. parvum (C. parvum): not abrogated by PABA | approximate 95% Cl count (mean parasite count per field) (C. parvum; NPMG 0.45 μg/ml): ~1200 count/field | approximate 95% Cl count (mean parasite count per field) (C. parvum; NPMG 4.5 μg/ml): ~900 count/field | approximate 95% Cl count (mean parasite count per field) (C. parvum; NPMG 0.045): ~1200 count/field

NC1C=CC=C(C(=O)O)C1 (stereo not drawn) [gabaculine, 3-amino-2,3-dihydrobenzoic acid]
toxicity to the foreskin fibroblasts [4]: no toxicity | IC50 (P. falciparum; Plasmodium falciparum): ≥ 45 µg/mL | parasite growth over the 8 day time course ([1]; RH, 20 mM gabaculine or P/S, uracil CPM): restricted | inhibition at 5000 µM ([1]; Toxoplasma gondii, 96 h, gabaculine 5 mM, 4 days, medium about 36,000 CPM): ~60% | restriction of CPM (tritiated uracil incorporation) ([1]; gabaculine 5 mM, 4 day assay, medium around 45,000 CPM): around 50% | counts (tritiated uracil incorporation) ([1]; gabaculine 20 mM, 4 days, medium around 45,000, no RH around 2,000 CPM): about 5,000 CPM | approximate 95% Cl count (mean parasite count per field) (C. parvum; gabaculine 0.2 μg/ml): ~1300 count/field | approximate 95% Cl count (mean parasite count per field) (C. parvum; gabaculine 2 μg/ml): ~600 count/field | approximate 95% Cl count (mean parasite count per field) (C. parvum; gabaculine 20 μg/ml): ~200 count/field | period over which parasite growth was restricted [5]: over the first 6 days of culture, after which a marked increase in parasite growth was detected
